The values that follow come from patent publication US20260355332A1, “ANTIBODY-DRUG CONJUGATE, AND PREPARATION METHOD THEREFOR AND USE THEREOF” (MEDILINK THERAPEUTICS (SUZHOU) CO., LTD., priority 2022, published 2026).

In the assay the test system is tumor cells. Briefly: Assay 2: inhibitory activity of bioactive molecules on tumor cells (CCK8), overall. In kind it is cell-based. The conditions noted are these: Example 6.2; multiple tumor cell lines. Here is the method:
Firstly, tumor cells NUCG-4, PC-9, HT29, NCI-H358, KYSE520, A431, and A549 were cultured. The bioactive molecules or fragments of the present disclosure were co-cultured with the tumor cells, and then a CCK8 reagent (Dojindo China Co., Ltd., Cat: CKO4, Lot: JJ744) was added. Readings were taken using a microplate reader (manufacturer: Molecular Devices, model: SpectraMax M2) (detection wavelength: 450 nm) to determine the activity of dehydrogenase in the mitochondria, so as to evaluate the inhibitory effects of the bioactive molecules on cell proliferation.
The in vitro cell activity was assayed as follows: Tumor cells were digested by a conventional method using trypsin, collected in a tube, counted, resuspended in the corresponding assay medium (containing 2% FBS), and added to a 96-well plate at 5000-10000 cells/well. Bioactive molecules diluted with DMSO (starting at a concentration of 10 μM, with a 3-fold dilution (12 concentration gradients)) were added to the 96-well plate at 100 μL/well, and the plate was incubated at 37° C. with 5% CO2 for 3-4 days. Subsequently, 20 μL of CCK8 reagent was added to each well, and the mixture was allowed to react for 2-6 h. Readings were then taken using a microplate reader (detection wavelength: 450 nm).

Each structure is given as a SMILES string. Entries after “also recorded” stand apart in the source; their conditions may differ.

Consider `CC[C@@]1(O)C(=O)OCc2c1cc1n(c2=O)Cc2c-1nc1cc3c(cc1c2CCCO)OCO3` [Example A1.9, (S)-7-ethyl-7-hydroxy-14-(3-hydroxypropyl)-10,13-dihydro-11H-[1,3]dioxolo[4,5-g]pyrano[3′,4′:6,7]indolizino[1,2-b]quinoline-8,11(7H)-dione], for which the “tumor cell-killing effect (in words)” value is recorded as “had tumor cell-killing effects; also recorded: stronger tumor-killing effect than Dxd in multiple tumor cell lines”.
With `CC[C@@]1(O)C(=O)OCc2c1cc1n(c2=O)Cc2c-1nc1cc3c(cc1c2CCCOCNC(=O)CN)OCO3` [Example B1.14, (S)-2-amino-N-((3-(7-ethyl-7-hydroxy-8,11-dioxo-7,8,11,13-tetrahydro-10H-[1,3]dioxolo[4,5-g]pyrano[3′,4′:6,7]indolizino[1,2-b]quinolin-14-yl)propoxy)methyl)acetamide] the entry was “had tumor cell-killing effects”.
